# From ChEMBL document CHEMBL4190365, “Synthesis and antiproliferative properties of new hydrophilic esters of triterpenic acids” (Eur J Med Chem, 2017)
# Legend:
# Type in all cases: functional, cell-based
# BJ = test: Cytotoxicity in human BJ cells assessed as reduction in cell viability incubated for 72 hrs by calcein AM cytotoxicity assay
# HeLa = test: Cytotoxicity in human HeLa cells assessed as reduction in cell viability incubated for 72 hrs by calcein AM cytotoxicity assay
# CCRF-CEM = test: Cytotoxicity in human CEM cells assessed as reduction in cell viability incubated for 72 hrs by calcein AM cytotoxicity assay
# G-361 = test: Cytotoxicity in human G361 cells assessed as reduction in cell viability incubated for 72 hrs by calcein AM cytotoxicity assay
# MCF7 = test: Cytotoxicity in human MCF7 cells assessed as reduction in cell viability incubated for 72 hrs by calcein AM cytotoxicity assay
SMILES,"IC50 (BJ; Homo sapiens, BJ, 72 h)","IC50 (HeLa; Homo sapiens, HeLa, 72 h)",IC50 (CCRF-CEM; ccrf-cem),"IC50 (G-361; Homo sapiens, G-361, 72 h)","IC50 (MCF7; Homo sapiens, MCF7, 72 h)","IC50 (CCRF-CEM; Homo sapiens, CCRF-CEM, 72 h)",IC50 (BJ; bj),IC50 (HeLa; hela),IC50 (G-361; g-361),IC50 (MCF7; mcf7)
C=C(C)[C@@H]1CC[C@]2(C(=O)OCCN3CCCCC3)CC[C@]3(C)[C@H](CC[C@@H]4[C@@]5(C)CC[C@H](O)C(C)(C)[C@@H]5CC[C@]43C)[C@@H]12 [listing 1 of 2 here],43.2 µM,23.8 µM,26.2 µM,28.6 µM,32.8 µM,,,,,
CC(=O)O[C@H]1CC[C@]2(C)[C@H]3CC[C@@H]4C5=C(C(C)C)C(=O)C[C@]5(C(=O)O[C@@H]5O[C@H](CO)[C@@H](O)[C@H](O)[C@H]5O)CC[C@@]4(C)[C@]3(C)CC[C@H]2C1(C)C,48.2 µM,9.3 µM,,6.7 µM,6.6 µM,12.2 µM,,,,
CC(=O)OC[C@@]1(C(=O)OCCBr)CC[C@]2(C)[C@H](CC[C@@H]3[C@@]4(C)CC[C@H](OC(C)=O)C(C)(C)[C@@H]4CC[C@]32C)C1=O,> 50 µM,> 50 µM,,> 50 µM,> 50 µM,> 50 µM,,,,
CC(C)[C@@H]1CC[C@]2(C(=O)O[C@@H]3O[C@H](CO)[C@H](O)[C@H](O)[C@H]3O)CC[C@]3(C)[C@H](CC[C@@H]4[C@@]5(C)CC[C@H](O)C(C)(C)[C@@H]5CC[C@]43C)[C@@H]12,> 50 µM,> 50 µM,,> 50 µM,> 50 µM,> 50 µM,,,,
CC(C)[C@@H]1CC[C@]2(C(=O)OCCN3CCCCC3)CC[C@]3(C)[C@H](CC[C@@H]4[C@@]5(C)CC[C@H](O)C(C)(C)[C@@H]5CC[C@]43C)[C@@H]12,45.1 µM,26.7 µM,19.6 µM,32.2 µM,31.8 µM,,,,,
CC(=O)OC[C@H]1O[C@@H](OC(=O)[C@]2(COC(C)=O)CC[C@]3(C)[C@H](CC[C@@H]4[C@@]5(C)CC[C@H](OC(C)=O)C(C)(C)[C@@H]5CC[C@]43C)[C@@H]2O)[C@H](OC(C)=O)[C@@H](OC(C)=O)[C@@H]1OC(C)=O,43 µM,> 50 µM,,> 50 µM,> 50 µM,> 50 µM,,,,
CC(=O)OC[C@H]1O[C@@H](OC(=O)[C@@]23CC[C@]4(C)[C@H](CC[C@@H]5[C@@]6(C)CC[C@H](OC(C)=O)C(C)(C)[C@@H]6CC[C@]54C)C2=C(C(C)C)C(=O)C3)[C@H](OC(C)=O)[C@@H](OC(C)=O)[C@@H]1OC(C)=O,> 50 µM,9.8 µM,,4.3 µM,3.8 µM,9.1 µM,,,,
C=C(C)[C@@H]1CC[C@]2(C(=O)O[C@@H]3O[C@H](CO)[C@@H](O)[C@H](O)[C@H]3O)CC[C@]3(C)[C@H](CC[C@@H]4[C@@]5(C)CC[C@H](O)C(C)(C)[C@@H]5CC[C@]43C)[C@@H]12,> 50 µM,> 50 µM,,> 50 µM,> 50 µM,> 50 µM,,,,
CC(C)[C@@H]1CC[C@]2(C(=O)O[C@@H]3O[C@H](CO)[C@@H](O)[C@H](O)[C@H]3O)CC[C@]3(C)[C@H](CC[C@@H]4[C@@]5(C)CC[C@H](O)C(C)(C)[C@@H]5CC[C@]43C)[C@@H]12,> 50 µM,> 50 µM,,> 50 µM,> 50 µM,> 50 µM,,,,
COCCOCCOC(=O)[C@]1(COC(C)=O)CC[C@]2(C)[C@H](CC[C@@H]3[C@@]4(C)CC[C@H](OC(C)=O)C(C)(C)[C@@H]4CC[C@]32C)C1=O,> 50 µM,> 50 µM,,> 50 µM,> 50 µM,> 50 µM,,,,
C=C(C)[C@@H]1CC[C@]2(C(=O)OCC(=O)OCc3ccccc3)CC[C@]3(C)[C@H](CC[C@@H]4[C@@]5(C)CC[C@H](O)C(C)(C)[C@@H]5CC[C@]43C)[C@@H]12,> 50 µM,> 50 µM,,22.2 µM,> 50 µM,21.9 µM,,,,
COCCOC(=O)[C@@]12CC[C@]3(C)[C@H](CC[C@@H]4[C@@]5(C)CC[C@H](OC(C)=O)C(C)(C)[C@@H]5CC[C@]43C)C1=C(C(C)C)C(=O)C2,> 50 µM,> 50 µM,,19.9 µM,42.5 µM,17.8 µM,,,,
C=C(C)[C@@H]1CC[C@]2(C(=O)OCCN3CCCC3)CC[C@]3(C)[C@H](CC[C@@H]4[C@@]5(C)CC[C@H](O)C(C)(C)[C@@H]5CC[C@]43C)[C@@H]12,23.1 µM,8.5 µM,5 µM,11.6 µM,19.9 µM,,,,,
CC(C)[C@@H]1CC[C@]2(C(=O)OCC(=O)O)CC[C@]3(C)[C@H](CC[C@@H]4[C@@]5(C)CC[C@H](O)C(C)(C)[C@@H]5CC[C@]43C)[C@@H]12,> 50 µM,> 50 µM,,> 50 µM,> 50 µM,> 50 µM,,,,
CC(=O)OC[C@H]1O[C@@H](OC(=O)[C@@]23CC[C@]4(C)[C@H](CC[C@@H]5[C@@]6(C)CC[C@H](OC(C)=O)C(C)(C)[C@@H]6CC[C@]54C)C2=C(C(C)C)C(=O)C3)[C@H](OC(C)=O)[C@@H](OC(C)=O)[C@H]1OC(C)=O,31.8 µM,44.3 µM,,3.1 µM,3.7 µM,4.5 µM,,,,
CC(=O)OC[C@@]1(C(=O)OCCN2CCCC2)CC[C@]2(C)[C@H](CC[C@@H]3[C@@]4(C)CC[C@H](OC(C)=O)C(C)(C)[C@@H]4CC[C@]32C)C1=O,> 50 µM,> 50 µM,,20.3 µM,> 50 µM,25.8 µM,,,,
CC(=O)O[C@H]1CC[C@]2(C)[C@H]3CC[C@@H]4C5=C(C(C)C)C(=O)C[C@]5(C(=O)OCCN5CCOCC5)CC[C@@]4(C)[C@]3(C)CC[C@H]2C1(C)C,42.5 µM,16.1 µM,,7 µM,14.5 µM,12.6 µM,,,,
COCCOCCOC(=O)[C@@]12CC[C@]3(C)[C@H](CC[C@@H]4[C@@]5(C)CC[C@H](OC(C)=O)C(C)(C)[C@@H]5CC[C@]43C)C1=C(C(C)C)C(=O)C2,> 50 µM,17.1 µM,,11.8 µM,21.9 µM,17.6 µM,,,,
CC(C)[C@@H]1CC[C@]2(C(=O)OCCBr)CC[C@]3(C)[C@H](CC[C@@H]4[C@@]5(C)CC[C@H](O)C(C)(C)[C@@H]5CC[C@]43C)[C@@H]12,36.7 µM,21.3 µM,,43.1 µM,45.9 µM,35.4 µM,,,,
CC(=O)O[C@H]1CC[C@]2(C)[C@H]3CC[C@@H]4C5=C(C(C)C)C(=O)C[C@]5(C(=O)OCCN5CCCCC5)CC[C@@]4(C)[C@]3(C)CC[C@H]2C1(C)C,,,,,,21.2 µM,44.6 µM,9.1 µM,7.2 µM,5.8 µM
CC(C)[C@@H]1CC[C@]2(C(=O)OCCN3CCOCC3)CC[C@]3(C)[C@H](CC[C@@H]4[C@@]5(C)CC[C@H](O)C(C)(C)[C@@H]5CC[C@]43C)[C@@H]12,37.4 µM,31.8 µM,,33.8 µM,37.6 µM,45.8 µM,,,,
C=C(C)[C@@H]1CC[C@]2(C(=O)OCCN3CCCCC3)CC[C@]3(C)[C@H](CC[C@@H]4[C@@]5(C)CC[C@H](O)C(C)(C)[C@@H]5CC[C@]43C)[C@@H]12 [listing 2 of 2 here],,,,,,21.5 µM,45.9 µM,24.7 µM,33.8 µM,33.5 µM
COCCOCCOC(=O)[C@]12CC[C@@H](C(C)C)[C@@H]1[C@H]1CC[C@@H]3[C@@]4(C)CC[C@H](O)C(C)(C)[C@@H]4CC[C@@]3(C)[C@]1(C)CC2,30.5 µM,26.4 µM,,24 µM,31.3 µM,32.3 µM,,,,
C=C(C=O)[C@@H]1CC[C@]2(C(=O)OCCN3CCOCC3)CC[C@]3(C)[C@H](CC[C@@H]4[C@@]5(C)CC[C@H](O)C(C)(C)[C@@H]5CC[C@]43C)[C@@H]12,19.2 µM,11 µM,,5.3 µM,2.2 µM,3.8 µM,,,,
